Assay results published in US9353120B2, “Tetraaza macrocyclic compound, preparation method thereof and use thereof” (Kyungpook National University Industry-Academic Cooperation …, priority 2009, dated 2016).
“Also recorded” adds a separate entry of the source. Read-outs that look alike come from different tables or passages of the source.

Tests used:
[1] = Electrochemical studies (cyclic voltammetry); format: physicochemical; details: pH 7.0, scan rate 100 mV/s; for reversibility of redox reaction: cyclic voltammogram
Experimental: Cyclic voltammetry was conducted using Biologic model SP-150 with three-electrode configuration. The system consisted of a glassy carbon (diameter=3 mm) as a working electrode, an Ag/AgCl (sat. KCl) reference electrode, and a Pt wire counter electrode. Samples were run in 0.1 M aqueous […] adjusted to pH 7.0 with glacial […] at scan rate 100 mV/s. The solutions were deoxygenated for 30 minutes with argon (Ar) prior to use and kept under Ar atmosphere during measurement.

[2] = in vivo
Experimental: (§1) The animals were sacrificed at 4 hours and 24 hours post-injection. Organs and tissues of interest were removed and weighed.

In vitro serum stability = format: in vitro ADME, bovine; details: FBS, 37° C., radio-TLC up to 24 hours, then 50° C. for 1 hour
Experimental: In vitro serum stability of ^64Cu-PCB-TE2A was tested by adding 20 μL of ^64Cu-PCB-TE2A (1-2 mM, 50 μCi) to 0.5 mL of fetal bovine serum (FBS). The solution was incubated at 37° C., and samples were analyzed by radio-TLC at 10, 30 and 60 minutes and at 2, 4, 10 and 24 hours post-addition to FBS (FIGS. 16-22). After 24 hours, the solution was incubated at 50° C. for 1 hour and once again samples were analyzed by radio-TLC (FIG. 23).

[3] = Rat biodistribution of 64Cu complexes
Experimental: as §1

[4] = Kinetic inertness via acid decomplexation (radio-TLC); format: physicochemical; details: 5 M and 10 M HCl, 90° C., radio-TLC at 6, 30 and 60 minutes
Experimental: Acid decomplexation of ^64Cu-PCB-TE2A was tested by adding 20 μL of ^64Cu-PCB-TE2A (1-2 mM, 52 μCi) to 100 μL of 5 M and 10 M HCl. The solution was heated at 90° C., and samples were analyzed by radio-TLC at 6, 30 and 60 minutes post-addition to 5 M and 10 M HCl (FIGS. 10-15).

in vivo = details: female, nude, mouse, iv, 16 uCi, total radioactivity, mean uptake in the tumor
[5] = buffer
Experimental: Acid decomplexation studies were performed under pseudo first-order conditions with the same concentration of 3 mmol in 5 M HCl at 90° C. Changes in the absorption maxima with time were monitored using a Shimadzu UV-Vis spectrophotometer (UV-1650PC) in thermostated cells. The decreasing absorbance at the λmax of each spectrum (Cu-PCB-TE2A: 655 nm, Cu-PCB-DO2A: 596 nm) was used to monitor the progress of the decomplexation reaction (FIGS. 24-25). Half-lives were calculated from the slopes of linear ln(absorbance) vs. time plots. Each experiment was repeated two to three times and mean values of half-lives are reported.

U87MG tumors = test: MicroPET imaging; format: in vivo, female nude mice; details: U87MG tumor bearing nude mouse, 1 hour post-injection, 231 μCi
Experimental: PET scans and image analysis were performed using a microPET R4 rodent model scanner. […] At 1 hour after the injection, the mice were anesthetized with 1-2% isoflurane, positioned porne, and imaged. The images were reconstructed by the 2-dimensional ordered-subsets expectation maximum (OSEM) algorithm. No correction was necessary for attenuation or scatter correction.

[6] = Kidney, 24 hours post-injection
[7] = Muscle, 24 hours post-injection
[8] = Spleen, 24 hours post-injection

Compound: O=C([O-])CN1CCN2CCCN(CC1)CCN(CC(=O)[O-])CC2.[Cu+2] [Cu-PCB-DO2A]
- reversibility of redox reaction [1]: irreversible redox reaction
- reversibility of redox reaction ([1]; listed as CU-PCB-DO2A): irrev
- Ered(V) vs Ag/AgCl (reduction potential) [1]: −0.69 V

Compound: O=C(O)CN1CCCN2CCCN(CCCN(CC(=O)O)CC2)CC1 [PCB-TE2A, 4,11-bis(carboxymethyl)-1,4,8,11-tetraazabicyclo[6.6.3]heptadecane]
- Blood (rat biodistribution, cross-bridged and non-cross-bridged chelators) ([2]; Sprague-Dawley, 24 h): 0.012±0.004 % ID/organ
- Kidney (rat biodistribution, cross-bridged and non-cross-bridged chelators) ([2]; Sprague-Dawley, 24 h): 0.064±0.009 % ID/organ
- Liver (rat biodistribution, cross-bridged and non-cross-bridged chelators) ([2]; Sprague-Dawley, 24 h): 0.142±0.004 % ID/organ

Compound: O=C([O-])CN1CCN2CCCN(CC1)CCN(CC(=O)[O-])CC2.[64Cu+2] [^64Cu-PCB-DO2A]
- clearance from the blood, liver and kidneys ([2]; rat): quickly cleared

Compound: O=C([O-])CN1CCCN2CCCN(CCCN(CC(=O)[O-])CC2)CC1.[64Cu+2] [^64Cu-PCB-TE2A]
- in vitro serum stability (In vitro serum stability): intact in the FBS for 24 hours without degradation
- % ID/g ([3]; Blood, 4 hours post-injection): 0.013 ± 0.003 % ID/g
- % ID/organ ([3]; Blood, 4 hours post-injection): 0.192 ± 0.048 % ID/organ
- % ID/g ([3]; Blood, 24 hours post-injection): 0.006 ± 0.001 % ID/g
- % ID/organ ([3]; Blood, 24 hours post-injection): 0.108 ± 0.029 % ID/organ
- % ID/g ([3]; Bone, 4 hours post-injection): 0.030 ± 0.004 % ID/g
- % ID/organ ([3]; Bone, 4 hours post-injection): 0.656 ± 0.110 % ID/organ
- % ID/g ([3]; Bone, 24 hours post-injection): 0.020 ± 0.005 % ID/g
- % ID/organ ([3]; Bone, 24 hours post-injection): 0.569 ± 0.181 % ID/organ
- % ID/g ([3]; Fat, 4 hours post-injection): 0.060 ± 0.013 % ID/g
- % ID/organ ([3]; Fat, 4 hours post-injection): 1.686 ± 0.322 % ID/organ
- % ID/g ([3]; Fat, 24 hours post-injection): 0.036 ± 0.005 % ID/g
- % ID/organ ([3]; Fat, 24 hours post-injection): 1.328 ± 0.311 % ID/organ
- % ID/g ([3]; Heart, 4 hours post-injection): 0.015 ± 0.001 % ID/g
- % ID/organ ([3]; Heart, 4 hours post-injection): 0.011 ± 0.000 % ID/organ
- % ID/g ([3]; Heart, 24 hours post-injection): 0.007 ± 0.002 % ID/g
- % ID/organ ([3]; Heart, 24 hours post-injection): 0.006 ± 0.001 % ID/organ
- % ID/g ([3]; Kidney, 4 hours post-injection): 0.421 ± 0.019 % ID/g
- % ID/organ ([3]; Kidney, 4 hours post-injection): 0.794 ± 0.056 % ID/organ
- % ID/g [3, 6]: 0.049 ± 0.007 % ID/g
- % ID/organ [3, 6]: 0.112 ± 0.011 % ID/organ
- % ID/g ([3]; Liver, 4 hours post-injection): 0.213 ± 0.032 % ID/g
- % ID/organ ([3]; Liver, 4 hours post-injection): 1.679 ± 0.241 % ID/organ
- % ID/g ([3]; Liver, 24 hours post-injection): 0.015 ± 0.001 % ID/g
- % ID/organ ([3]; Liver, 24 hours post-injection): 0.122 ± 0.013 % ID/organ
- % ID/g ([3]; Lungs, 4 hours post-injection): 0.022 ± 0.003 % ID/g
- % ID/organ ([3]; Lungs, 4 hours post-injection): 0.022 ± 0.003 % ID/organ
- % ID/g ([3]; Lungs, 24 hours post-injection): 0.013 ± 0.002 % ID/g
- % ID/organ ([3]; Lungs, 24 hours post-injection): 0.015 ± 0.003 % ID/organ
- % ID/g ([3]; Muscle, 4 hours post-injection): 0.033 ± 0.006 % ID/g
- % ID/organ ([3]; Muscle, 4 hours post-injection): 2.743 ± 0.525 % ID/organ
- % ID/g [3, 7]: 0.018 ± 0.006 % ID/g
- % ID/organ [3, 7]: 1.987 ± 0.703 % ID/organ
- % ID/g ([3]; Spleen, 4 hours post-injection): 0.025 ± 0.006 % ID/g
- % ID/organ ([3]; Spleen, 4 hours post-injection): 0.013 ± 0.004 % ID/organ
- % ID/g [3, 8]: 0.015 ± 0.009 % ID/g
- % ID/organ [3, 8]: 0.009 ± 0.004 % ID/organ
- % ID/g ([3]; Tail, 4 hours post-injection): 0.046 ± 0.039 % ID/g
- % ID/organ ([3]; Tail, 4 hours post-injection): 0.252 ± 0.213 % ID/organ
- % ID/g ([3]; Tail, 24 hours post-injection): 0.039 ± 0.014 % ID/g
- % ID/organ ([3]; Tail, 24 hours post-injection): 0.276 ± 0.115 % ID/organ
- clearance from the blood, liver and kidneys ([3]; words): lowest amount of ^64Cu remaining in the blood and these tissues
- kinetic inertness towards acid decomplexation [4]: unusually high kinetic inertness towards acid decomplexation

Compound: N=C(N)NCCC[C@@H]1NC(=O)[C@H](CCCCNC(=S)Nc2ccc(CC3CN4CCCN(CC(=O)O)CCN(CCCN(CC(=O)O)CC4)C3)cc2)NC(=O)[C@@H](Cc2ccc(O)cc2)NC(=O)[C@H](CC(=O)O)NC(=O)CNC1=O (stereo partly shown) [metal not drawn]
- tissue uptake at 1 h (in vivo): 4.76 %ID/g

Compound: Cu-PCB-TE2A
- Half-life for acid decomplexation, 5M HCl, 90° C. [5]: 231(2)h
- reversibility of redox reaction [1]: quasi-reversible redox reaction; also recorded: qitasi-rev
- Ered(V) vs Ag/AgCl (reduction potential) [1]: −0.66 V

Compound: ^64Cu-PCB-TE2A-c(RGDyK)
- radiation uptake in the tumors (microPET) (U87MG tumors): very high in the tumors as compared to other organs
